Source: US20240360134A1, “PYRAZOLOPYRIMIDINES AND THEIR USES AS PDGFR INHIBITORS” (priority 2021, published 2024)

What was measured:
[1] = target: Tb-labeled inactive PDGFRβ (Homo sapiens (Human), UniProt P09619); assay: biochemical; format: binding; conditions: read-out: PDGFR Lantha IC50
[2] = target: His6-TEV-PDGFRβ (557-1016) (Homo sapiens (Human), UniProt P09619); assay: PDGFRβ HTRF Assay; format: biochemical; conditions: 800 μM ATP, 0.5 μM TK-substrate biotin peptide, 30 min pre-incubation, 3 hours reaction; read-out: PDGFR HTRF IC50
Chain of His6-TEV-PDGFRβ (557-1016) (P09619 whole entry, looked up): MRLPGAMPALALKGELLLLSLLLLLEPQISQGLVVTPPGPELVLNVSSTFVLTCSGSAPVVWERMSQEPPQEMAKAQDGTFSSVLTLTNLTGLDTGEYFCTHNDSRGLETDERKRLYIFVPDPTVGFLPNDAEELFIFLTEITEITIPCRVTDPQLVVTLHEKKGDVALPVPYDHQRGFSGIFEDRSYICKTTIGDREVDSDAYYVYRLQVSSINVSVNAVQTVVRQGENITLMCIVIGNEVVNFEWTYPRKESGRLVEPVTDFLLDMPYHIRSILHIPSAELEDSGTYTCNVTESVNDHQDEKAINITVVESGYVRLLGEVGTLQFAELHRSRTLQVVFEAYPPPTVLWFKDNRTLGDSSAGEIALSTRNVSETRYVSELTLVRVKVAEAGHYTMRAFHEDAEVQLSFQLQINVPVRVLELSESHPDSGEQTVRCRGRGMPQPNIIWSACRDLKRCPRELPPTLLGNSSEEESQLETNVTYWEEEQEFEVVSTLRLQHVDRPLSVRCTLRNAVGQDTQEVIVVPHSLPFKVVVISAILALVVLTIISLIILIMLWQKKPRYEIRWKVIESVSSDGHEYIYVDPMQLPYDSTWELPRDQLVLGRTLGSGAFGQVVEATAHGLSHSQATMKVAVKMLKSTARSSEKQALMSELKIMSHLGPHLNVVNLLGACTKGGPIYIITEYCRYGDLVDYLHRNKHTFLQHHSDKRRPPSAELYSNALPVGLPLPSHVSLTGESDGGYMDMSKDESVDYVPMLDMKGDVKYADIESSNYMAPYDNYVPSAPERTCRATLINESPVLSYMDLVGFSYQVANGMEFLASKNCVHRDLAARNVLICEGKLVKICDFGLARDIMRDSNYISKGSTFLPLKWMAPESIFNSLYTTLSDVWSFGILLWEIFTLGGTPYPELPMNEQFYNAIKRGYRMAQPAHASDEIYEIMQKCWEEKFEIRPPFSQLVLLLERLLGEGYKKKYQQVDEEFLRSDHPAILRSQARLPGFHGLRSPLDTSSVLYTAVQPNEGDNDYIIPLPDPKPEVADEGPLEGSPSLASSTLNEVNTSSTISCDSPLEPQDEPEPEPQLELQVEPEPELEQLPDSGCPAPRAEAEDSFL

[3] = target: VEGFR2, unphosphorylated (Homo sapiens (Human), UniProt P35968); assay: VEGFR ADP GLO assay; format: biochemical; conditions: 5 nM VEGFR2, 1.2 mM ATP, 1 mg/mL Srctide, 180 min
Chain of VEGFR2, unphosphorylated (P35968 whole entry, looked up): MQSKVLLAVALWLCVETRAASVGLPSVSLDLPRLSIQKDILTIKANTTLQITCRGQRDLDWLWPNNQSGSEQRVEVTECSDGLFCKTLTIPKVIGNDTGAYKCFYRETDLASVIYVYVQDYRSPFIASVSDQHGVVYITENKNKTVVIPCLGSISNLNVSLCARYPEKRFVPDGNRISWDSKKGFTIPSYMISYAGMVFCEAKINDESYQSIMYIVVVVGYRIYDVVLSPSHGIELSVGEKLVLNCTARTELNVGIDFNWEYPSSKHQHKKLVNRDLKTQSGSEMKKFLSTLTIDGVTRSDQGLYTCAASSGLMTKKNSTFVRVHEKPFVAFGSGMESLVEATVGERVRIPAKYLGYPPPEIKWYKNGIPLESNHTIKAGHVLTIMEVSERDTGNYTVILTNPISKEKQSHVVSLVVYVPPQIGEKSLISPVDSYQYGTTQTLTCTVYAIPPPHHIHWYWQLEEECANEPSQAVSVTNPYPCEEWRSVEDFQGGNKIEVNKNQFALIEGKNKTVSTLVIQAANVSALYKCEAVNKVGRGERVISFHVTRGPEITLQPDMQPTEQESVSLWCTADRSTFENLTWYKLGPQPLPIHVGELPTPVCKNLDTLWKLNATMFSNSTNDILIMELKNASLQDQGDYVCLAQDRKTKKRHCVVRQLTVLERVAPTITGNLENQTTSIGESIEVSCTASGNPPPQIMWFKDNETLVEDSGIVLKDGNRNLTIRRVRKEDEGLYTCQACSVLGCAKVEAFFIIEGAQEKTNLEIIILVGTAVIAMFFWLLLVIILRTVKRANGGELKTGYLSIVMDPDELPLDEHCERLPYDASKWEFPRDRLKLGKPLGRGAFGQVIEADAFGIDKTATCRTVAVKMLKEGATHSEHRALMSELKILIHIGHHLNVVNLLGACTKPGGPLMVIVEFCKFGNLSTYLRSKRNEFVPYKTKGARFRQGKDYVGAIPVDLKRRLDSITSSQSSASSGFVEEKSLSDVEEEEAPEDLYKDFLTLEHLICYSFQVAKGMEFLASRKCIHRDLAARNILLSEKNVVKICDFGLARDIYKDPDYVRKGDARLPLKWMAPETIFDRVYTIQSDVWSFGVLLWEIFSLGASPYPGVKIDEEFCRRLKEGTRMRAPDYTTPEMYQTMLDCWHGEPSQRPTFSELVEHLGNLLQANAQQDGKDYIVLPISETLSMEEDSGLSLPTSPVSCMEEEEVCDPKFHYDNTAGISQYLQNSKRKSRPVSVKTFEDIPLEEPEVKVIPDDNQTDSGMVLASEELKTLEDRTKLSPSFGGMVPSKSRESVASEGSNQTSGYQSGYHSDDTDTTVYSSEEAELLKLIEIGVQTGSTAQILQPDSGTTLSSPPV
Procedure, shortened: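 Unphosphorylated kinase (10 nM 2× solution) pre-incubated 30 min at RT with compounds (11-point, 3-fold, top 10 µM), then reacted 180 min with srctide and ATP (2×: 2 mg/mL, 2.4 mM) in HEPES pH 7.5 buffer. ADP read by luminescence. IC50 from 4-parameter fit, normalized to DMSO and 1 µM TAK-593.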

[4] = target: PDGFRβ (Rattus norvegicus (Rat), UniProt Q05030); assay: PDGFRβ Cellular Assay (PDGFRb P-Y751 HTRF, PDGF-BB stimulated A10 cells); format: cell-based; conditions: A10 cells, 3 hours compound, 15 ng/mL PDGFbb for 10 minutes; read-out: PDGFR Cellular IC50
Chain of PDGFRβ (Q05030 whole entry, looked up): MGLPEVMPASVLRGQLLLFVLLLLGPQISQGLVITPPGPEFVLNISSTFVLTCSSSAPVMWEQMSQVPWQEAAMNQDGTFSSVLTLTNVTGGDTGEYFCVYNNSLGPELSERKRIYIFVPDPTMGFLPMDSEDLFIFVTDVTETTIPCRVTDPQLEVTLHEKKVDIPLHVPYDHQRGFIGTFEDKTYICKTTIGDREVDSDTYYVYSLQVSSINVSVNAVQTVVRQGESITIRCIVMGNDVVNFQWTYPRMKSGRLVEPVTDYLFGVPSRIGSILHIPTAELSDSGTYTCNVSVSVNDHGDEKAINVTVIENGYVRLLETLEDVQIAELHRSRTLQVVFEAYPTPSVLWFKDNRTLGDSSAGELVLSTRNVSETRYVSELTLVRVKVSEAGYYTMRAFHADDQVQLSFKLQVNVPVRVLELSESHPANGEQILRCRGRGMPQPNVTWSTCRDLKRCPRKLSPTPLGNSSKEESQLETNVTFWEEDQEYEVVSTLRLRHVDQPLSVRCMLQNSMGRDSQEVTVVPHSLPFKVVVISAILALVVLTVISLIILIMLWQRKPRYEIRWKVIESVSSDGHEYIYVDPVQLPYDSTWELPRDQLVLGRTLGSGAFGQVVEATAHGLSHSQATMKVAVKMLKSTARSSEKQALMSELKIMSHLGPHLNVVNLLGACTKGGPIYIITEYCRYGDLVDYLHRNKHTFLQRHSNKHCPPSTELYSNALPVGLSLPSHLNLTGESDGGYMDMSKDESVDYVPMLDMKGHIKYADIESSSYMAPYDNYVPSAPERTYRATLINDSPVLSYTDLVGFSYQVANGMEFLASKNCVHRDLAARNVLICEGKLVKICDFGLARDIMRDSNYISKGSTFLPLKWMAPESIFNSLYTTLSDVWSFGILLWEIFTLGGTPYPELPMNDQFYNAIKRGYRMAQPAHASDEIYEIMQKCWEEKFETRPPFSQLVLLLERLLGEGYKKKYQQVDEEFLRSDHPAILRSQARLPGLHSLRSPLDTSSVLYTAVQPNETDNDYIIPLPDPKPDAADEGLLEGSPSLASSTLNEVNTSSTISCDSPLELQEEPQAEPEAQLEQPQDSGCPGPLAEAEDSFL
Procedure, shortened: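 Rat A10 cells plated overnight were treated with compound for 3 h, stimulated with rat PDGF-BB (working stock 100 ng/mL in 10% FBS medium) for 10 min, then lysed.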

Chain of Tb-labeled inactive PDGFRβ (P09619 whole entry, looked up): as the sequence (P09619 whole entry, looked up) above

`Cc1ncc(C(=O)NCCN2CCCC2(C)C)cc1Nc1nn(C)c2nc(Nc3cccc(C4(C(=O)O)CC4)c3)ncc12` [Example 38, 1-(3-((3-((5-((2-(2,2-dimethylpyrrolidin-1-yl)ethyl)carbamoyl)-2-methylpyridin-3-yl)amino)-1-methyl-1H-pyrazolo[3,4-d]pyrimidin-6-yl)amino)phenyl)cyclopropanecarboxylic acid] showed an IC50 [1] of 15.3 nM, an IC50 [2] of 1.59 nM and an IC50 [3] of 715 nM. It also gave an IC50 [4] greater than 3000 nM.

In the case of `Cc1ncc(C(=O)NCCN2CCCC2(C)C)cc1Nc1nn(C)c2nc(Nc3cnn(C)n3)ncc12` [Example 40, N-(2-(2,2-dimethylpyrrolidin-1-yl)ethyl)-6-methyl-5-((1-methyl-6-((2-methyl-2H-1,2,3-triazol-4-yl)amino)-1H-pyrazolo[3,4-d]pyrimidin-3-yl)amino)nicotinamide], the IC50 [1] is reported as 13 nM, the IC50 [2] is reported as 1.22 nM and the IC50 [3] is reported as greater than 7500 nM. The IC50 [4] was 14.1 nM.

`Cc1ncc(C(=O)NCCN2CCCC2(C)C)cc1Nc1nn(C)c2nc(Nc3ccnc(N)c3)ncc12` [Example 41, 5-((6-((2-aminopyridin-4-yl)amino)-1-methyl-1H-pyrazolo[3,4-d]pyrimidin-3-yl)amino)-N-(2-(2,2-dimethylpyrrolidin-1-yl)ethyl)-6-methylnicotinamide] showed an IC50 [1] of 3.2 nM, an IC50 [2] of 0.36 nM and an IC50 [3] greater than 7500 nM. It also gave an IC50 [4] of 115 nM.

`Cc1ncc(C(=O)NCCN2CCCC2(C)C)cc1Nc1nn(C)c2nc(Nc3cccnc3)ncc12` [Example 42, N-(2-(2,2-dimethylpyrrolidin-1-yl)ethyl)-6-methyl-5-((1-methyl-6-(pyridin-3-ylamino)-1H-pyrazolo[3,4-d]pyrimidin-3-yl)amino)nicotinamide] showed an IC50 [1] of 3.9 nM, an IC50 [2] of 0.6 nM and an IC50 [3] greater than 10000 nM. The IC50 [4] was 33.2 nM.

Molecule `Cc1ncc(C(=O)NCCN2CCCC2(C)C)cc1Nc1nn(C)c2nc(Nc3cccc(CC(=O)O)c3)ncc12` [Example 44, 2-(3-((3-((5-((2-(2,2-dimethylpyrrolidin-1-yl)ethyl)carbamoyl)-2-methylpyridin-3-yl)amino)-1-methyl-1H-pyrazolo[3,4-d]pyrimidin-6-yl)amino)phenyl)-acetic acid] has an IC50 [1] of 9.7 nM, an IC50 [2] of 1.54 nM and an IC50 [3] of 2190 nM. For the same molecule, the IC50 [4] was 2660 nM.

For `Cc1ncc(C(=O)NCCN2CCCC2(C)C)cc1Nc1nn(C)c2nc(Nc3cccc(C(C)(C)C(=O)O)c3)ncc12` [Example 47, 2-(3-((3-((5-((2-(2,2-dimethylpyrrolidin-1-yl)ethyl)carbamoyl)-2-methylpyridin-3-yl)amino)-1-methyl-1H-pyrazolo[3,4-d]pyrimidin-6-yl)amino)phenyl)-2-methylpropanoic acid], the IC50 [1] was 14.6 nM, the IC50 [2] was 2.58 nM and the IC50 [3] was 2420 nM. It also gave an IC50 [4] greater than 3000 nM.

`Cc1cc(C(=O)NCCN2CCCC2(C)C)sc1Nc1nn(C)c2nc(Nc3cncnc3)ncc12` [Example 48, N-(2-(2,2-dimethylpyrrolidin-1-yl)ethyl)-4-methyl-5-((1-methyl-6-(pyrimidin-5-ylamino)-1H-pyrazolo[3,4-d]pyrimidin-3-yl)amino)thiophene-2-carboxamide] was tested, and the IC50 [1] was 52.8 nM, the IC50 [2] was 1.07 nM and the IC50 [3] was greater than 7500 nM. It also gave an IC50 [4] of 110 nM.

`COC1CCN(CCNC(=O)c2cc(C)c(Nc3nn(C)c4nc(Nc5cnn(C)c5)ncc34)s2)CC1` [Example 49, N-(2-(4-methoxypiperidin-1-yl)ethyl)-4-methyl-5-((1-methyl-6-((1-methyl-1H-pyrazol-4-yl)amino)-1H-pyrazolo[3,4-d]pyrimidin-3-yl)amino)thiophene-2-carboxamide] was tested, and the IC50 [1] was 40.2 nM, the IC50 [2] was 1.17 nM and the IC50 [3] was greater than 7500 nM. It also gave an IC50 [4] of 105 nM.

Molecule `Cn1nc(Nc2cc(C(=O)NCCN3CCCC3(C)C)ccc2F)c2cnc(Nc3cncnc3)nc21` [Example 51, N-(2-(2,2-dimethylpyrrolidin-1-yl)ethyl)-4-fluoro-3-((1-methyl-6-(pyrimidin-5-ylamino)-1H-pyrazolo[3,4-d]pyrimidin-3-yl)amino)benzamide] has an IC50 [1] of 9 nM, an IC50 [2] of 0.87 nM and an IC50 [3] greater than 7500 nM. For the same molecule, the IC50 [4] was 17.2 nM.

For `Cn1nc(Nc2cc(C(=O)NCCN3CCCC3(C)C)ccc2F)c2cnc(Nc3ccncn3)nc21` [Example 52, N-(2-(2,2-dimethylpyrrolidin-1-yl)ethyl)-4-fluoro-3-((1-methyl-6-(pyrimidin-4-ylamino)-1H-pyrazolo[3,4-d]pyrimidin-3-yl)amino)benzamide], the IC50 [1] was 160 nM, the IC50 [2] was 4.71 nM and the IC50 [3] was greater than 2500 nM. It also gave an IC50 [4] of 67 nM.

`Cc1ncc(C(=O)NCCN2CC(C)(C)C2)cc1Nc1nn(C)c2nc(Nc3cncnc3)ncc12` [Example 55, N-(2-(3,3-dimethylazetidin-1-yl)ethyl)-6-methyl-5-((1-methyl-6-(pyrimidin-5-ylamino)-1H-pyrazolo[3,4-d]pyrimidin-3-yl)amino)nicotinamide] showed an IC50 [1] of 9.5 nM, an IC50 [2] of 0.55 nM and an IC50 [3] greater than 7500 nM. It also gave an IC50 [4] of 275 nM.

`Cc1ncc(C(=O)NCCN2CCCCC23CC3)cc1Nc1nn(C)c2nc(Nc3cncnc3)ncc12` [Example 56, N-(2-(4-azaspiro[2.5]octan-4-yl)ethyl)-6-methyl-5-((1-methyl-6-(pyrimidin-5-ylamino)-1H-pyrazolo[3,4-d]pyrimidin-3-yl)amino)nicotinamide] showed an IC50 [1] of 3 nM, an IC50 [2] of 0.54 nM and an IC50 [3] greater than 7500 nM. It also gave an IC50 [4] of 9.7 nM.

With `Cc1ncc(C(=O)NCCN2CCCC23CC3)cc1Nc1nn(C)c2nc(Nc3cncnc3)ncc12` [Example 57, N-(2-(4-azaspiro[2.4]heptan-4-yl)ethyl)-6-methyl-5-((1-methyl-6-(pyrimidin-5-ylamino)-1H-pyrazolo[3,4-d]pyrimidin-3-yl)amino)nicotinamide] the IC50 [1] was 5.6 nM, the IC50 [2] was 0.97 nM and the IC50 [3] was greater than 7500 nM. The IC50 [4] was 15.6 nM.

Work on `Cc1ncc(C(=O)NCCN2CCC3(CC3)C2)cc1Nc1nn(C)c2nc(Nc3cncnc3)ncc12` [Example 58, N-(2-(5-azaspiro[2.4]heptan-5-yl)ethyl)-6-methyl-5-((1-methyl-6-(pyrimidin-5-ylamino)-1H-pyrazolo[3,4-d]pyrimidin-3-yl)amino)nicotinamide] yielded an IC50 [1] of 4.8 nM, an IC50 [2] of 0.36 nM and an IC50 [3] greater than 7500 nM. For the same molecule, the IC50 [4] was 101 nM.

`Cc1cc(C(=O)NCCN2CCC[C@@H]2C)sc1Nc1nn(C)c2nc(Nc3cnn(C)c3)ncc12` [Example 60, (S)-4-methyl-5-((1-methyl-6-((1-methyl-1H-pyrazol-4-yl)amino)-1H-pyrazolo[3,4-d]pyrimidin-3-yl)amino)-N-(2-(2-methylpyrrolidin-1-yl)ethyl)thiophene-2-carboxamide] was tested, and the IC50 [1] was 9.7 nM, the IC50 [2] was 0.65 nM and the IC50 [3] was greater than 7500 nM. For the same molecule, the IC50 [4] was 67.2 nM.

With `Cc1cc(C(=O)NCCN2CC3COCC3C2)sc1Nc1nn(C)c2nc(Nc3cnn(C)c3)ncc12` (stereo not drawn) [Example 61, 4-methyl-5-((1-methyl-6-((1-methyl-1H-pyrazol-4-yl)amino) 1H-pyrazolo[3,4-d]pyrimidin-3-yl)amino)-N-(2-(tetrahydro-1H-furo[3,4-c]pyrrol-5(3H)-yl)ethyl)thiophene-2-carboxamide] the IC50 [1] was 10.2 nM, the IC50 [2] was 0.61 nM and the IC50 [3] was 3860 nM. The IC50 [4] was 86.8 nM.

`Cc1cc(C(=O)NCCN2CCCOCC2)sc1Nc1nn(C)c2nc(Nc3cnn(C)c3)ncc12` [Example 62, N-(2-(1,4-oxazepan-4-yl)ethyl)-4-methyl-5-((1-methyl-6-((1-methyl-1H-pyrazol-4-yl)amino)-1H-pyrazolo[3,4-d]pyrimidin-3-yl)amino)thiophene-2-carboxamide] showed an IC50 [1] of 12.1 nM, an IC50 [2] of 0.83 nM and an IC50 [3] greater than 7500 nM. The IC50 [4] was 64.7 nM.

`Cn1cc(Nc2ncc3c(Nc4cc(C(=O)NCCN5CCC(F)(F)CC5)ccc4F)nn(C)c3n2)cn1` [Example 63, N-(2-(4,4-difluoropiperidin-1-yl)ethyl)-4-fluoro-3-((1-methyl-6-((1-methyl-1H-pyrazol-4-yl)amino)-1H-pyrazolo[3,4-d]pyrimidin-3-yl)amino)benzamide] showed an IC50 [1] of 0.89 nM, an IC50 [2] of 0.2 nM and an IC50 [3] of 582 nM. For the same molecule, the IC50 [4] was 1.6 nM.

`Cc1ccc(C(=O)NCCN2CC(C)(C)C2)cc1Nc1nn(C)c2nc(Nc3cnn(C)c3)ncc12` [Example 64, N-(2-(3,3-dimethylazetidin-1-yl)ethyl)-4-methyl-3-((1-methyl-6-((1-methyl-1H-pyrazol-4-yl)amino)-1H-pyrazolo[3,4-d]pyrimidin-3-yl)amino)benzamide] was tested, and the IC50 [1] was 2.1 nM, the IC50 [2] was 0.26 nM and the IC50 [3] was 1030 nM. It also gave an IC50 [4] of 8.9 nM.

In the case of `Cc1ccc(C(=O)NCCN2CCC[C@@H]2C)cc1Nc1nn(C)c2nc(Nc3cnn(C)c3)ncc12` [Example 65, (S)-4-methyl-3-((1-methyl-6-((1-methyl-1H-pyrazol-4-yl)amino)-1H-pyrazolo[3,4-d]pyrimidin-3-yl)amino)-N-(2-(2-methylpyrrolidin-1-yl)ethyl)benzamide], the IC50 [1] is reported as 2.1 nM, the IC50 [2] is reported as 0.22 nM and the IC50 [3] is reported as 2400 nM. It also gave an IC50 [4] of 10 nM.

`Cc1ccc(C(=O)NCCN2CCCC2(C)C)cc1Nc1nn(C)c2nc(Nc3cnn(C)c3)ncc12` [Example 66, N-(2-(2,2-dimethylpyrrolidin-1-yl)ethyl)-4-methyl-3-((1-methyl-6-((1-methyl-1H-pyrazol-4-yl)amino)-1H-pyrazolo[3,4-d]pyrimidin-3-yl)amino)benzamide] gave an IC50 [1] of 2.3 nM, an IC50 [2] of 0.28 nM and an IC50 [3] of 1330 nM. It also gave an IC50 [4] of 3.4 nM.
